Data set [1] concerns SUM159 tumor. Description: MDS/siRNA by tail vein in SUM159 tumor mice, MSFE of isolated cells. It is filed as in vivo, SCID/Beige mice. To be noted: MDS/siRNA by tail vein injection, cells isolated 3 weeks later. As to the method: To develop siRNA nanotherapeutics targeting TIC, studies have been conducted to confirm the essential roles of the candidate TIC genes. Exemplary siRNA oligonucleotides specific for STAT3, MFL2, and RPL39L were formulated into nanoliposomes, which were then loaded into porous silicon MSV particles. For in vitro assay, BT549 and SUM159 cells were incubated with MSV/siRNA, and primary and secondary MSFE was measured. […] For in vivo assessment, SCID/Beige mice were inoculated with SUM159 tumor, and treated with MDS/siRNA delivered by tail vein injection. Cells were then isolated from tumor mice 3 weeks later, and MSFE was measured. […] These studies indicate that 1) MDS/siRNA could successfully be delivered to tumor tissues effectively in vivo, 2) uptake of MDS/siRNA by TIC was efficient, and 3) MFL2 and RPL39L were essential genes for TIC.

Data set [2] relates to SUM159 xenografts. Briefly: short-term in vivo siRNA (multistage particle) treatment, SUM159 xenograft. More on the design: species or system SCID-Beige mice. To be noted: for tumor volume: SUM159; for secondary MSFE: SUM159 xenograft cells, tumors collected after two weeks; for Aldefluor levels: SUM159 xenografts, reduction not statistically significant. The protocol: FIG. 9A, FIG. 9B, FIG. 9C, and FIG. 9D show short-term, in vivo treatment in siRNA SUM159 xenografts. Triple-negative breast cancer cell line SUM159 was injected into the mammary fat pad of SCID beige mice (n=9). These tumors were randomized into six groups: 1) vehicle+scrambled siRNA (15 μg, i.v.); 2) vehicle+RPL39 siRNA 15 μg (i.v.); 3) vehicle+MLF2 siRNA (15 μg (i.v.); 4) docetaxel (20 mg/kg, i.p.)+scrambled siRNA 15 μg (i.v.): 5) docetaxel (20 mg/kg, i.p.)+RPL39 siRNA 15 ltg (i.v.), and 6) docetaxel (20 mg/kg, i.p.)+MLF2 siRNA 15 μg (i.v.). […] Data were analyzed by one-way ANOVA, and plotted as mean±SEM for n=9 replicates; *p<0.05;
The effect of MLF2 and RPL39 using siRNA packaged in multistage nanoparticles in two different triple negative models were studied. SUM159 and a patient-derived human cancer xenograft (BCM2665) from a primary human breast cancer transplanted in SCID-Beige mice, the test group had 54 mice per xenograft line, and 9 mice per treatment arm. When tumor sizes reached 150 to 300 mm^3, mice were divided into six groups: (1) vehicle-treated, (2) chemotherapy on day 0 with one dose of docetaxel 20 mg/kg by intraperitoneal (i.p.) injection. (3) siRNA against MLF2 packaged in nanoparticles (single injection intravenous (i.v.) on Day 1), (4) combination treatment with docetaxel (20 mg/kg i.p. on Day 1) and siRNA against MLF2 (single injection i.v. on Day 1), (5) siRNA against RPL39 packaged in nanoparticles (single injection i.v. on Day 1), and (6) combination treatment with docetaxel (20 mg/kg i.p. on Day 1) and siRNA against inhibitor […] (single injection iv. on Day 1). The same dose (15 μg siRNA) was used in all experiments. Animals were sacrificed on Day 14. The tumors were harvested and analyzed for downstream effects on BCSC self-renewal using FACS analysis, and MSFE.
The fraction of BCSCs in the xenograft tumors from the six treatment groups were processed by mincing and digesting the tumors using collagenase type III, for 3 hrs at 37° C. in order to dissociate the tumors into single cells. Changes in CD44+/CD24/Lin− and Aldefluor® were analyzed as described previously (Li et al., 2008). Briefly, cells were stained with primary antibodies antiCD44 labeled APC (dilution 1:10. BD Biosciences), anti-CD24-labeled FITC (dilution 1:10, BD Biosciences), and additionally with H2KD-labeled PE to eliminate all mouse, lineage-positive cells. The cells were incubated in HBSS (Hanks Balanced Salt Solution, GIBCO) for 15 min on ice with 2% FBS for the antibodies and 45 min for Aldefluor® reagent. Following incubation, cells were washed once with HBSS and re-suspended in HBSS supplemented with 2% FBS. […] (PI) was added to the cells for live/dead gating prior to FACS analysis.
Mammosphere formation efficiency, the in vitro assay for stem cell self-renewal, was performed as described previously (Dontu et al., 2003; Dontu et al., 2005; Li et al., 2008). Single cells were plated in ultra-low attachment plates (Corning, Acton, Mass., USA) at the density 40,000 viable cells/mL for BCM2665 in primary culture, and at the density 10,000 viable cells/mL in secondary culture. For mammosphere culture, cells were grown in serum-free mammary epithelial basal medium (MEGM) (Lonza, Inc.) supplemented with B27 (Invitrogen), 20 ng/mL EGF (BD Biosciences), and 1% heparin (Sigma Chemical Co.) in a humidified incubator ([…]: 95% air, 37° C. for 14 days, as previously described (Li et al., 2008).

Data set [3] concerns eNOS. Description: Western blot of nitric oxide synthases after siRNA knockdown. It is filed as cell-based, human. To be noted: three triple-negative cell lines treated in vitro with siRNA. The protocol: (§1) In order to confirm the pathways involved in BCSC targeting, western blot analysis was conducted with siRNA knockdown and overexpression of RPL39 and MLF2 in three breast cancer cell lines (SUM159, BT549 and MDAMB231). Briefly, 30 μg of whole cell extracts were quantified and run on a 4-20% gel for 1 hr, and transferred onto nitrocellulose membranes. The primary antibodies were incubated overnight at the following dilutions eNOS (1:500), nNOS (1:500), and iNOS (1:1000) (Millipore, Bellerica, Mass., USA) followed by one-hour secondary antibody incubation, and development using chemiluminescence.
Background: A western blot detects proteins with antibodies after separation by electrophoresis.

The test system of data set [4] is iNOS. The data set is described as above. It is filed as cell-based, human. The conditions noted are these: three triple-negative cell lines (SUM159, BT549, MDAMB231) treated in vitro with siRNA. As to the method:
as §1

Data set [5] relates to nNOS. The data set is described as above. The conditions noted are these: three triple-negative cell lines treated in vitro with siRNA. It is filed as cell-based, human. The protocol: as §1
[6] abbreviates: siRNA alone (15 μg i.v., MSV) vs vehicle.
[7] abbreviates: siRNA+chemotherapy vs standard-dose docetaxel (20 mg/kg).

Consider “MLF2 siRNA: siRNA against myeloid leukemia factor 2; sense SEQ ID NO: 3 CCCTGATGGATCCCTTTGCTAT, antisense SEQ ID NO: 19 ATAGCAAAGGGATCCATCAGGA (packaged in nanoliposomes, chemistry not given here, further chemistry not given here)”, for which the “MSFE of cells isolated from tumor mice” value in data set [1] is “Dramatic reduction”. The tumor volume result in data set [2] (setting [6]) was “Significant reduction”; in data set [2] (setting [7]), “Similarly, observations were obtained”. The “secondary MSFE” value in data set [2] is “Significant decrease”. Also, the Aldefluor levels result in data set [2] was “reduction”. The eNOS result in data set [3] is reported as “decrease”. In data set [4], the iNOS signaling entry is given as “clear reduction”. For the same substance, the nNOS entry in data set [5] is given as “no changes”.

Turning to “RPL39 siRNA: siRNA against ribosomal protein L39-like; sense SEQ ID NO: 15 ACGATTCCTGGCCAAGAAACAA, antisense SEQ ID NO: 31 TTGTTTCTTGGCCAGGAATCGC (listed as DNA, chemistry not fully specified)”, in data set [1], the “MSFE of cells isolated from tumor mice” value is “Dramatic reduction”. Besides, in data set [2] (setting [6]), the tumor volume entry was “Significant reduction”. Further, the tumor volume result in data set [2] (setting [7]) was “Similarly, observations were obtained”. Besides, in data set [2], the “secondary MSFE” value is “Significant decrease” and the Aldefluor levels entry was “reduction”. For the same substance, the eNOS entry in data set [3] is given as “decrease”. The iNOS signaling result in data set [4] is given as “clear reduction”. The nNOS entry in data set [5] is on record as “no changes”.

The values are drawn from patent US9546367B2, “siRNA compositions and methods for inhibiting gene expression in tumor initiating cells of breast cancer” (priority 2011, dated 2017).
